Experimental data taken from ChEMBL document CHEMBL1151104, “Mollinedine, a New Alkaloid from Mollinedia costaricensis” (J Nat Prod, 1988).
Calls of active or inactive are those of the source. The rule behind the calls is not given here.

Tests used:
Cavia porcellus = species on record: Cavia porcellus; assay: Inhibition of CaCl2-induced myocardial arrhythmias in guinea pig; format: functional, organism-based
Rattus norvegicus = species on record: Rattus norvegicus; assay: Inhibition of ouabain-induced myocardial arrhythmias in rat; format: functional, organism-based

Q: For `c1cc2cc3c(cc2c(Cc2ccc4c(c2)OCO4)n1)OCO3`, which Activity (Cavia porcellus) is on record?
A: Its Activity is “Active”.

Q: What about the Activity (Rattus norvegicus) of the same molecule?
A: The Activity was “Active”.
